Laboratory results published in patent US20050143450A1, “Alkyl PCDF as a treatment for prostate cancer” (priority 2002, published 2005).

Experiments:
LNCaP cells = assay type: cell-based, human; details: six days; for growth of LNCaP cells in the presence of DHT: 10 nM DHT; for proliferation of LNCaP cells: absence of DHT, TCDD 1-100 nM
Experimental: After trypsinization and low-speed centrifugation, LNCaP cells were resuspended and counted using a Coulter cell counter (Beckman Coulter, Fullerton, Calif.). Cells were seeded at a density of 5×10^4/35-mm well using DME-F12 without phenol red, supplemented with 2.5% charcoal-stripped fetal bovine serum (FBS). Twenty-four hours after seeding, initial treatment was applied and then subsequently reapplied with fresh medium every two days until harvesting by trypsinization. Cells were counted after harvesting using a Coulter counter.

22Rv1 cells = experiment: Growth inhibition of 22Rv1 prostate cancer cells; assay type: cell-based
Experimental: 22Rv1 cells were treated with various concentrations of TCDD.
In a second study, 22Rv1 cells were maintained in 10% serum, and various concentrations of 6-MCDF were added to the cells.

[1] = tested on: androgen-responsive probasin gene promoter (pPB); assay type: cell-based, human; details: ZR-75 cells, pPB alone
Experimental: ZR-75 human breast cancer and LNCaP human prostate cancer cells were obtained from American Type Culture Collection (Manassas, Va.) and were maintained in RPMI 1640 medium supplemented with 10% FBS, 1% antibiotic/antimycotic solution, 1.5 g/L sodium bicarbonate, and 10 mM HEPES, final pH of 7.4. Cells were seeded at 2.75×10^5 per 22-mm well in DME-F12 without phenol red, supplemented with 2.5% charcoal-stripped fetal bovine serum (FBS). After 24 h, cells were transfected using Lipofectamine and Plus reagents (Invitrogen) according to manufacturer's instructions. LNCaP and ZR-75 cells were transfected with 500 ng/well of either reporter plasmid, and 250 ng/well of pcDNA3.1-β-gal (Invitrogen) as the internal control. In addition, ZR-75 cells were transfected with 500 ng hAR. Twenty-four hours after treatment, cells were harvested by scraping with 200 μL/well of reporter lysis buffer. Lysates were centrifuged at 40,000 g and luciferase and β-galactosidase activity was assayed with 30 μL of the supernatant extract per sample using a Lumicount luminometer (PerkinElmer, Boston, Mass.). Luciferase activity was normalized to β-galactosidase activity for each transfection well.

AR = molecular target: T1, AR (Homo sapiens, UniProt P10275, T878A); assay type: cell-based; details: LNCaP, pPB; for effect on E2-induced luciferase activity: cotreatment with 10 nM E2
T1 construct: AR protein levels in whole cell lysates were determined by Western blot analysis; endogenous in cells; host or cells: LNCaP
T1 sequence (P10275 1-920 T878A): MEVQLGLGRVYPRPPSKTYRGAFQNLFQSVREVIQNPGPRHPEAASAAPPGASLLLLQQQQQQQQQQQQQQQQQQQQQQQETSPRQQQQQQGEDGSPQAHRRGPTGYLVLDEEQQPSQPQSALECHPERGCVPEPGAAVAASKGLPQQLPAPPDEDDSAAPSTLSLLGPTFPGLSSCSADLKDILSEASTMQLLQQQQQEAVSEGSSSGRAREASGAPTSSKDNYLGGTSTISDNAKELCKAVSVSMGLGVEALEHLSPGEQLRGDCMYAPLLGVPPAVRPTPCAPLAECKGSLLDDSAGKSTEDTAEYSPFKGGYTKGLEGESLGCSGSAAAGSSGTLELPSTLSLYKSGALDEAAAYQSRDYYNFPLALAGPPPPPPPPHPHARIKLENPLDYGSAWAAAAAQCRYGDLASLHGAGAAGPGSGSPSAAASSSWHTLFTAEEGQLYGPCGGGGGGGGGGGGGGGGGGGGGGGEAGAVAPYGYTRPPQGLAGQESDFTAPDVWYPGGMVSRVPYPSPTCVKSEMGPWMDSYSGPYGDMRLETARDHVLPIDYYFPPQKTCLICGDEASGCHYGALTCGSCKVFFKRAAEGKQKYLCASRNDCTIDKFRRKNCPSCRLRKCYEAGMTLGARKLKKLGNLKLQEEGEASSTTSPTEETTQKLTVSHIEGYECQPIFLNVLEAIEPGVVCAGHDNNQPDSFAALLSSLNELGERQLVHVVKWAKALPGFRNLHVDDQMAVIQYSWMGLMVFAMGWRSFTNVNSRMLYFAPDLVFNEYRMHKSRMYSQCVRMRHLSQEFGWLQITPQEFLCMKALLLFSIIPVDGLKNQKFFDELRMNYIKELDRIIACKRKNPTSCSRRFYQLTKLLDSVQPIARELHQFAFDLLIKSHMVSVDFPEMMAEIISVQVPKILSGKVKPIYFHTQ
Experimental: After 24 h, cells were transfected using Lipofectamine and Plus reagents (Invitrogen) according to manufacturer's instructions. LNCaP and ZR-75 cells were transfected with 500 ng/well of either reporter plasmid, and 250 ng/well of pcDNA3.1-β-gal (Invitrogen) as the internal control. In addition, ZR-75 cells were transfected with 500 ng hAR. Twenty-four hours after treatment, cells were harvested by scraping with 200 μL/well of reporter lysis buffer. Lysates were centrifuged at 40,000 g and luciferase and β-galactosidase activity was assayed with 30 μL of the supernatant extract per sample using a Lumicount luminometer (PerkinElmer, Boston, Mass.). Luciferase activity was normalized to β-galactosidase activity for each transfection well.
The transfected cells were then treated with hormone or AhR agonist alone or in combination and luciferase activity was determined as described in the above examples.

[2] = tested on: ethoxyresorufin O-deethylase (EROD) activity in 22Rv1 cells; experiment: Induction of EROD activity in 22Rv1 cells; assay type: cell-based; details: 24-hr treatment
Experimental: (§1) An androgen responsive prostate cancer cell line 22Rv1 and an androgen nonresponsive prostate cancer cell line PC3 were treated with TCDD and ethoxyresorufin O-deethylase (EROD) activity was measured.

[3] = tested on: ethoxyresorufin O-deethylase (EROD) activity in PC3 cells; experiment: Induction of EROD activity in PC3 cells; assay type: cell-based; details: 24-96 hr
Experimental: as §1

SMILES: Cc1cc(Cl)cc2c1oc1cc(Cl)cc(Cl)c12 [6-MCDF, 6-methyl-1,3,8-trichlorodibenzofuran]
- growth of LNCaP cells in the presence of DHT (LNCaP cells): inhibited growth
- proliferation of LNCaP cells (LNCaP cells): growth inhibition was also observed
- 22Rv1 cell proliferation (22Rv1 cells; cells maintained in 10% serum, various concentrations): concentration-dependent decrease
- reporter gene activity [1]: did not activate
- effect on E2-induced luciferase activity (AR; HPTE 10 μM): significantly decreased
- induction of luciferase activity by AhR agonist alone (AR; MCDF 2 μM): did not significantly induce activity

SMILES: Clc1cc2c(cc1Cl)Oc1cc(Cl)c(Cl)cc1O2 [TCDD, 2,3,7,8-tetrachloro-p-dioxin]
- EROD activity induction [2]: induced EROD activity
- EROD activity induction ([3]; 1 nM): did not induce activity
- EROD activity induction ([3]; 10 nM, maximal after 96 hr): induced a response
- growth of LNCaP cells in the presence of DHT (LNCaP cells): inhibited growth
- proliferation of LNCaP cells (LNCaP cells): significantly inhibited
- testosterone-induced growth of 22Rv1 cells (22Rv1 cells; 1 nM): inhibited
- constitutive growth of 22Rv1 cells (22Rv1 cells; 1 nM alone): inhibited
- reporter gene activity [1]: did not activate
- effect on DHT-induced luciferase activity (AR; cotreatment with 10 nM DHT, MCDF 2 μM, HPTE 10 μM): significantly inhibited
- effect on E2-induced luciferase activity (AR; HPTE 10 μM): significantly decreased
- induction of luciferase activity by AhR agonist alone (AR; MCDF 2 μM): did not significantly induce activity
